pIC50: −log10 of the molar value.
These molecules were tested against T1, Peroxisome proliferator-activated receptor gamma (Homo sapiens, UniProt P37231) (assay: Binding affinity to GST-tagged human PPAR-gamma receptor by FRET assay). Settings: not given; call rule not given here.
T1 sequence (P37231 whole entry): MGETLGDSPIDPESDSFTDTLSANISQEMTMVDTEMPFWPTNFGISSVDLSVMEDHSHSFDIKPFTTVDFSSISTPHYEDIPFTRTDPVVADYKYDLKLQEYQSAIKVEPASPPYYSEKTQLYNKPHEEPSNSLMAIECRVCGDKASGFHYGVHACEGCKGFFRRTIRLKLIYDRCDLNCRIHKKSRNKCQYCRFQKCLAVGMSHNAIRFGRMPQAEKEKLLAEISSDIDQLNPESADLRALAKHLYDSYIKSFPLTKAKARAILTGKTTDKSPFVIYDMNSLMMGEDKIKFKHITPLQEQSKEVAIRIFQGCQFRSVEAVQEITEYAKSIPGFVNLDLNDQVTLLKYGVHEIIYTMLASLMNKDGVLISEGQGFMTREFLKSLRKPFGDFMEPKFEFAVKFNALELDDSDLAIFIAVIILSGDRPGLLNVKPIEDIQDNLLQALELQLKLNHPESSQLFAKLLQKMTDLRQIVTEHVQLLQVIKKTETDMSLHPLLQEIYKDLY

Structure (SMILES) | IC50
COc1ccc(COCCN(CCOC(C)=O)c2ccc(C=C3C(=O)NC(=O)NC3=O)cc2)cc1 | Not Active
O=C1NC(=O)C(=Cc2ccc(N(CCOc3ccccn3)CCOc3ccccn3)cc2)C(=O)N1 | Not Active
COc1ccc(COCCN(CCOCc2ccc(Br)cc2)c2ccc(C=C3C(=O)NC(=O)NC3=O)cc2)cc1 | Not Active
O=C1NC(=O)C(=Cc2ccc(N(CCOCc3ccc(F)cc3)CCOCc3ccc(F)cc3)cc2)C(=O)N1 | Not Active
O=C1NC(=O)C(=Cc2ccc(N(CCOCc3ccccc3)CCOC(c3ccccc3)(c3ccccc3)c3ccccc3)cc2)C(=O)N1 | Not Active
CC(=O)OCCN(CCOC(C)=O)c1ccc(C=C2C(=O)NC(=O)NC2=O)cc1 | Not Active

Same assay, conditions: read-out: IC50

Structure (SMILES) | pIC50
N#Cc1ccc(OCCN(CCOc2ccc(C#N)cc2)c2ccc(C=C3C(=O)NC(=O)NC3=O)cc2)cc1 | 5.19
COc1ccc(COCCN(CCOCc2ccccc2)c2ccc(C=C3C(=O)NC(=O)NC3=O)cc2)cc1 | 3.72
O=C1NC(=O)C(=Cc2ccc(OCc3ccccc3)cc2)C(=O)N1 | 7.00
COc1ccc(COCCN(CCOCc2ccc(OC)cc2)c2ccc(C=C3C(=O)NC(=O)NC3=O)cc2)cc1 | 4.23
COc1ccc(COCCN(CCOc2ccccn2)c2ccc(C=C3C(=O)NC(=O)NC3=O)cc2)cc1 | 4.08
O=C1NC(=O)C(=Cc2ccc(N(CCOCc3ccccc3)CCOCc3ccccc3)cc2)C(=O)N1 | 4.11
O=C1NC(=O)C(=Cc2ccc(N(CCOc3ccc([N+](=O)[O-])cc3)CCOc3ccc([N+](=O)[O-])cc3)cc2)C(=O)N1 | 5.00
O=C1NC(=O)C(=Cc2ccc(N(CCO)CCOC(c3ccccc3)(c3ccccc3)c3ccccc3)cc2)C(=O)N1 | 4.65
CC(=O)OCCN(CCOCc1ccccc1)c1ccc(C=C2C(=O)NC(=O)NC2=O)cc1 | < 3.70

— ChEMBL document CHEMBL3751711, “Design and synthesis of novel Y-shaped barbituric acid derivatives as PPARγ activators” (Eur J Med Chem, 2016)
